Data published in patent publication US20240368150A1 (Hoffmann-La Roche Inc., priority 2021, published 2024).
Where two headings read alike, the source gives them in different places.

Tests used:
[1] = target: hDGKalpha(1-735)-N-His (Homo sapiens (Human), UniProt P23743); assay: DGKalpha ADP Glo assay (in vitro DGK inhibition); format: biochemical; settings: DLG 125 uM, ATP 25 μM, DGK α 4 nM, 1 hour reaction
Method in brief: (§1)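 His-tagged human DGKα (4 nM) and DGKζ (2 nM) phosphorylate DLG presented in DLG/PS/PC liposomes using ATP; reaction run 1 hour. ADP formed measured by ADP-Glo luminescence. Compounds tested as 11-point 1:3 dose response […], 2% DMSO final.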

[2] = target: hDGKzeta(1-928)-N-His (Homo sapiens (Human), UniProt Q13574); assay: DGKzeta ADP Glo assay (in vitro DGK inhibition); format: biochemical; settings: DLG 125 uM, ATP 50 μM, DGK ζ 2 nM, 1 hour reaction
Sequence of hDGKzeta(1-928)-N-His (Q13574 whole entry): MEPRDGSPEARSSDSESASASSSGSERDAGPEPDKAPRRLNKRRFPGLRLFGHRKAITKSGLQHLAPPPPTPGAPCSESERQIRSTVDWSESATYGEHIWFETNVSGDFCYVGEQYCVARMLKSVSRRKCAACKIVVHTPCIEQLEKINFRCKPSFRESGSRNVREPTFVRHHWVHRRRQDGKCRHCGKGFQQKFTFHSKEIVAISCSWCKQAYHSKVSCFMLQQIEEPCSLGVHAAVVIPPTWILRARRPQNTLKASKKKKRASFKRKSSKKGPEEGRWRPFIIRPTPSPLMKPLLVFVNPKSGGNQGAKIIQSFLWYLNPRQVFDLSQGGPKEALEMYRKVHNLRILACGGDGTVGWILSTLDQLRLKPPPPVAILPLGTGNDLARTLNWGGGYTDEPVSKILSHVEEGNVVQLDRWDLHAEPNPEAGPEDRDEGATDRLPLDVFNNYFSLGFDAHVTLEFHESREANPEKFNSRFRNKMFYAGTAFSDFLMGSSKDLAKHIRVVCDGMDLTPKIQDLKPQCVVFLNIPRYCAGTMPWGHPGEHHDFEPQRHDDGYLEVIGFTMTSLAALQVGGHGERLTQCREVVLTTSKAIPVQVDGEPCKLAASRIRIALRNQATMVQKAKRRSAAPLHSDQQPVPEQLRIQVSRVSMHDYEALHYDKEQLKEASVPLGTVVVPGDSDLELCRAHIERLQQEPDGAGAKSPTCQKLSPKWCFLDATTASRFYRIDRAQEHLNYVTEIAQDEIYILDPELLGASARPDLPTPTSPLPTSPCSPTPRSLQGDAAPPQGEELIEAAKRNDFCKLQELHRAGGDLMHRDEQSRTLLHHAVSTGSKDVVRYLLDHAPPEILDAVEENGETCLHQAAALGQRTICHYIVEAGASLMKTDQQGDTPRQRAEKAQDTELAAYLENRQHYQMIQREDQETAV
Method in brief: as §1

[3] = system: primary human T-cells; assay: Proliferation assay after 5 days (CellTiter-Glo, CD3 stimulation; PBS counter screen); format: cell-based; settings: CD3 stimulation; for Emax: read-out: Emax proliferation (% activation); for EC50: primary human T-cells, CellTiter-Glo after 5 days, EC50 of fitted sigmoidal curve, read-out: Tcell Proliferation CD3 EC50
Method in brief: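 Luminescent ATP detection (CellTiter-Glo 2.0) quantified cell number 5 days after compounds went onto medium-only plates. Wells showing visible toxicity or precipitate were noted beforehand, and compounds that stimulated unstimulated cells or lowered viability were flagged.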

[4] = system: MV-3 cells; assay: T-cell - TCB - MV3 killing assay (MCSP-TCB, RFP object count by Incucyte); format: cell-based, human; settings: Homo sapiens, MV-3, 120 h, 5 d; for Emax: normalized: MCSP-TCB only = neutral control, 20 μM reference compound A1 = 100%, read-out: MSCP TCB killing MV-3 cells 5 d Emax; for EC50: primary human T-cells + MCSP-TCB, MV-3 RFP cells, read-out: MSCP TCB killing MV-3 cells 5 d EC50
[5] = system: primary human T-cells
[6] = Homo sapiens, T-cell, 120 h, 5 days, normalized to reference compound A1 as stimulator control = 100%, DMSO neutral control

Sequence of hDGKalpha(1-735)-N-His (P23743 whole entry): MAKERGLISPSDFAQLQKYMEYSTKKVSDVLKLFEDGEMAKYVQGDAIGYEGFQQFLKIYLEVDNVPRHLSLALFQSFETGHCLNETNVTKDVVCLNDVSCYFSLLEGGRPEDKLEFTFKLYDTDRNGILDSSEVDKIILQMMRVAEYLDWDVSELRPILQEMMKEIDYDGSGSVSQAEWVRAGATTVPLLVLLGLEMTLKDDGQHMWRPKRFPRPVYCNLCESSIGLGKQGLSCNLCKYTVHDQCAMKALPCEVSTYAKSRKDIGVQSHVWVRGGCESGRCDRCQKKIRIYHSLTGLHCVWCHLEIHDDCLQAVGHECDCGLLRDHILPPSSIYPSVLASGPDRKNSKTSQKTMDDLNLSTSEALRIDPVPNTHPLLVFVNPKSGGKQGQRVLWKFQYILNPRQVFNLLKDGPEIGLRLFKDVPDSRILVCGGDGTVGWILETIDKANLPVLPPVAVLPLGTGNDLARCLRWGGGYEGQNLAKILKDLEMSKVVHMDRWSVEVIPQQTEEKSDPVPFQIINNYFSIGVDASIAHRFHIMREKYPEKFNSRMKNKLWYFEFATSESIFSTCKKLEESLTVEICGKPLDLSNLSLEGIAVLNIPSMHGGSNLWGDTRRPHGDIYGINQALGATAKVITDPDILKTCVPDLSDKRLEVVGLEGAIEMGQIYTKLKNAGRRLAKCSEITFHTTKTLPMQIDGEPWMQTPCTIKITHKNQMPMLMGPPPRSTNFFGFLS

IC50 [1]	IC50 [2]	EC50 [5]	Structure (SMILES)	Emax [3, 6]	EC50 ([3]; Homo sapiens, T-cell, 120 h)	Emax [4]	EC50 [4]	Emax proliferation (% activation) ([3]; 5 days, normalized to reference compound A1 as stimulator control = 100%, DMSO neutral control)	EC50 [3]
643 nM	685 nM	4180 nM	CC(C)(CO)c1nnc(-c2cc3c(cc2F)S(=O)(=O)C[C@H](N)C(=O)N3Cc2ccc(Cl)cc2)o1 [Example 86, (3R)-3-amino-5-[(4-chlorophenyl)methyl]-8-fluoro-7-[5-(2-hydroxy-1,1-dimethyl-ethyl)-1,3,4-oxadiazol-2-yl]-1,1-dioxo-2,3-dihydro-1λ^6,5-benzothiazepin-4-one]	95%	777 nM	100%	520 nM	–	–
301 nM	251 nM	1070 nM	CC(C)(CO)c1nc(-c2cc3c(cc2F)S(=O)(=O)C[C@H](N)C(=O)N3Cc2ccc(Cl)cc2)no1 [Example 303, (3R)-3-amino-5-[(4-chlorophenyl)methyl]-8-fluoro-7-[5-(2-hydroxy-1,1-dimethyl-ethyl)-1,2,4-oxadiazol-3-yl]-1,1-dioxo-2,3-dihydro-1λ^6,5-benzothiazepin-4-one]	140%	605 nM	92%	400 nM	–	–
876 nM	933 nM	525 nM	CC(C)(C)c1nnc(-c2ccc3c(c2)N(Cc2ccc(Cl)cc2)C(=O)[C@@H](N)CS3(=O)=O)o1 [Example 361]	100%	361 nM	100%	560 nM	–	–
3310 nM	658 nM	2400 nM	N[C@H]1CS(=O)(=O)c2ccc(-c3nnc(C4(C5CC5)CCCO4)o3)cc2N(Cc2ccc(Cl)cc2)C1=O (stereo partly drawn) [Example 381, (3R)-3-amino-5-[(4-chlorophenyl)methyl]-7-[5-(2-cyclopropyltetrahydrofuran-2-yl)-1,3,4-oxadiazol-2-yl]-1,1-dioxo-2,3-dihydro-1λ^6,5-benzothiazepin-4-one]	119%	2420 nM	101%	160 nM	–	–
4580 nM	2250 nM	792 nM	CN1CCCC(F)(c2nnc(-c3ccc4c(c3)N(Cc3ccc(Cl)cc3)C(=O)[C@@H](N)CS4(=O)=O)o2)C1 (stereo partly drawn) [Example 384, (3R)-3-amino-5-[(4-chlorophenyl)methyl]-7-[5-(3-fluoro-1-methyl-3-piperidyl)-1,3,4-oxadiazol-2-yl]-1,1-dioxo-2,3-dihydro-1λ^6,5-benzothiazepin-4-one]	112%	698 nM	110%	990 nM	–	–
5020 nM	14000 nM	2510 nM	CC1(Nc2nnc(-c3ccc4c(c3)N(Cc3ccc(Cl)cc3)C(=O)[C@@H](N)CS4(=O)=O)o2)CC(F)(F)C1 [Example 406, (3R)-3-amino-5-[(4-chlorophenyl)methyl]-7-[5-[(3,3-difluoro-1-methyl-cyclobutyl)amino]-1,3,4-oxadiazol-2-yl]-1,1-dioxo-2,3-dihydro-1λ^6,5-benzothiazepin-4-one]	79%	1860 nM	85%	1540 nM	–	–
2690 nM	484 nM	2360 nM	N[C@H]1CS(=O)(=O)c2ccc(-c3nnc(N4CCOC(C(F)(F)F)C4)o3)cc2N(Cc2ccc(Cl)cc2)C1=O (stereo partly drawn) [Example 412, (3R)-3-amino-5-[(4-chlorophenyl)methyl]-1,1-dioxo-7-[5-[2-(trifluoromethyl)morpholin-4-yl]-1,3,4-oxadiazol-2-yl]-2,3-dihydro-1λ^6,5-benzothiazepin-4-one]	126%	176 nM	92%	140 nM	–	–
1450 nM	1680 nM	369 nM	N[C@H]1CS(=O)(=O)c2ccc(-c3nnc(CC(F)(F)F)o3)cc2N(Cc2ccc(OC(F)(F)F)cc2)C1=O [Example 416, (3R)-3-amino-1,1-dioxo-7-[5-(2,2,2-trifluoroethyl)-1,3,4-oxadiazol-2-yl]-5-[[4-(trifluoromethoxy)phenyl]methyl]-2,3-dihydro-1λ^6,5-benzothiazepin-4-one]	58%	402 nM	95%	530 nM	–	–

Continued, compound first:

Structure (SMILES)	IC50 [1]	IC50 [2]	EC50 [5]	Emax [3, 6]	EC50 ([3]; Homo sapiens, T-cell, 120 h)	Emax [4]	EC50 [4]	Emax proliferation (% activation) ([3]; 5 days, normalized to reference compound A1 as stimulator control = 100%, DMSO neutral control)	EC50 [3]
CC(C)(C)n1nnc(-c2cc3c(cc2F)S(=O)(=O)C[C@H](NC(=O)CN)C(=O)N3Cc2ccc(Cl)cc2)n1 [Example 29, 2-amino-N-[(3R)-7-(2-tert-butyltetrazol-5-yl)-5-[(4-chlorophenyl)methyl]-8-fluoro-1,1,4-trioxo-2,3-dihydro-1lambda6,5-benzothiazepin-3-yl]acetamide]	> 62500 nM	33100 nM	855 nM	172%	93.6 nM	95%	37 nM	–	–
CC(C)(C)c1nnc(-c2cc3c(cc2F)S(=O)(=O)C[C@H](N)C(=O)N3Cc2ccc(OC(F)(F)F)cc2)o1 [Example 57, (3R)-3-Amino-7-(5-tert-butyl-1,3,4-oxadiazol-2-yl)-8-fluoro-1,1-dioxo-5-[[4-(trifluoromethoxy)phenyl]methyl]-2,3-dihydro-1λ^6,5-benzothiazepin-4-one]	210 nM	254 nM	36.7 nM	231%	32.7 nM	100%	50 nM	–	–
CC(C)(C)c1nnc(-c2cc3c(cc2F)[S+]([O-])C[C@H](N)C(=O)N3Cc2ccc(OC(F)(F)F)cc2)o1 (stereo partly drawn) [Example 62, (3R)-3-amino-7-(5-tert-butyl-1,3,4-oxadiazol-2-yl)-8-fluoro-1-oxo-5-[[14-(trifluoromethoxy)phenyl]methyl]-2,3-dihydro-1λ^4,5-benzothiazepin-4-one]	452 nM	622 nM	149 nM	–	–	81%	260 nM	88 % activation	721 nM
COC(=O)N1CC2CC(c3nnc(-c4cc5c(cc4F)S(=O)(=O)C[C@H](N)C(=O)N5Cc4ccc(Cl)cc4)o3)(C2)C1 [Example 184, methyl 1-[5-[(3R)-3-amino-5-[(4-chlorophenyl)methyl]-8-fluoro-1,1,4-trioxo-2,3-dihydro-1λ^6,5-benzothiazepin-7-yl]-1,3,4-oxadiazol-2-yl]-3-azabicyclo[3.1.1]heptane-3-carboxylate]	244 nM	290 nM	109 nM	77%	24.2 nM	79%	90 nM	–	–
CC(C)(C)c1nnc(-c2cc3c(cc2F)S(=O)(=O)C[C@H](NC(=O)CN)C(=O)N3Cc2ccc(Cl)cc2)o1 [Example 266, 2-amino-N-[(3R)-7-(5-tert-butyl-1,3,4-oxadiazol-2-yl)-5-[(4-chlorophenyl)methyl]-8-fluoro-1,1,4-trioxo-2,3-dihydro-1λ^6,5-benzothiazepin-3-yl]acetamide]	54500 nM	40100 nM	214 nM	137%	77.5 nM	76%	20 nM	–	–
CC(N)(c1nc(-c2cc3c(cc2F)S(=O)(=O)C[C@H](N)C(=O)N3Cc2ccc(OC(F)(F)F)cc2)no1)C(F)(F)F (stereo partly drawn) [Example 331, (3R)-3-amino-7-[5-(1-amino-2,2,2-trifluoro-1-methyl-ethyl)-1,2,4-oxadiazol-3-yl]-8-fluoro-1,1-dioxo-5-[[4-(trifluoromethoxy)phenyl]methyl]-2,3-dihydro-1λ^6,5-benzothiazepin-4-one]	857 nM	176 nM	74.6 nM	126%	58.4 nM	116%	30 nM	–	–
N[C@H]1CS(=O)(=O)c2ccc(-c3nnc(C4(N)CCCCC4)o3)cc2N(Cc2ccc(OC(F)(F)F)cc2)C1=O [Example 417, (3R)-3-amino-7-[5-(1-aminocyclohexyl)-1,3,4-oxadiazol-2-yl]-1,1-dioxo-5-[[4-(trifluoromethoxy)phenyl]methyl]-2,3-dihydro-1λ^6,5-benzothiazepin-4-one]	6410 nM	2110 nM	328 nM	70%	337 nM	182%	1860 nM	–	–
CC(C)(C)c1nnc(-c2ccc3c(c2)N(Cc2ccc(OC4CCCC4)cc2)C(=O)[C@@H](N)CS3(=O)=O)o1 [Example 430, (3R)-3-amino-7-(5-tert-butyl-1,3,4-oxadiazol-2-yl)-5-[[4-(cyclopentoxy)phenyl]methyl]-1,1-dioxo-2,3-dihydro-1λ^6,5-benzothiazepin-4-one]	467 nM	594 nM	24.2 nM	110%	97 nM	96%	60 nM	–	–
